Laboratory results as given in patent US9708314B2, “Heterocyclic amide compound” (NISSAN CHEMICAL INDUSTRIES, LTD., priority 2013, dated 2017).

How the values were obtained:
Format in all cases: in vivo
[1] = system: transplanted Oryza sativa; assay: Test Example 1: effect on crop, application before weed generation in submerged conditions; conditions: Application herbicide amount 320 g/ha; Seventeenth Table
Excerpt: (§1) [Test Example 1] Herbicidal Activity Test by Application Before Weed Generation in Submerged Conditions After alluvial soil was placed into 1/10000 are of Wagner pot, water was poured and mixed to form a submerged condition having a water depth of 4 cm. Seeds of Echinochloa oryzacola Vasing., Scirpus juncoides, and Monochoria vaginalis were sowed in a mixed manner in the above pot and thereafter 2.5 leaf stage Oryza sativa seedling was transplanted. On the day of sowing seeds, the emulsion agent containing the compound of the present invention prepared in accordance with Formulation Example 2 was diluted with water so as to be a predetermined herbicide amount and the diluted compound was applied to the surface of the water. The pot was placed in a greenhouse of 25° C. to 30° C. to grow plant. Three weeks after the herbicide application, effects on each plant were investigated in accordance with the following criteria. Criteria 5 Herbicidal ratio of 90% or more (almost completely withered) 4 Herbicidal ratio of 70% or more and less than 90% 3 Herbicidal ratio of 40% or more and less than 70% 2 Herbicidal ratio of 20% or more and less than 40% 1 Herbicidal ratio of 5% or more and less than 20% 0 Herbicidal ratio of 5% or less (almost no effect) A: Echinochloa oryzicola Vasing., B: Scirpus juncoides, C: Monochoria vaginalis, D: Leptochloa chinensis, E: Cyperus difformis, F: Digitaria ciliaris, G: Setaria viridis, H: Echinochloa crus-galli var. crus-galli, I: Avena fatua, J: Alopecurus myosuroides, K: Lolium multiflorum Lam., L: Apera spica-venti., M: Abutilon theophrasti, N: Amaranthus retroflexus, O: Chenopodium album, P: Stellaria media, Q: Galium spurium, R: Veronica persica, a: transplanted Oryza sativa, b: directly sowed Oryza sativa, c: Zea mays, d: Glycine max, e: Triticum aestivum, f: Beta vulgaris ssp. vulgaris, and g: Brassica campestris L. The application herbicide amount (g/ha) means an amount that a concentration is adjusted so that, when an application amount is converted into per hectare (1 ha), the herbicide is applied by the number of grams (g) of the described value.

[2] = system: Galium spurium; assay: Test Example 4: herbicidal effect by application to foliage (diluvial soil, plastic box); conditions: application to foliage, application herbicide amount 320 g/ha
Excerpt: (§2) 5 Herbicidal ratio of 90% or more (almost completely withered) 4 Herbicidal ratio of 70% or more and less than 90% 3 Herbicidal ratio of 40% or more and less than 70% 2 Herbicidal ratio of 20% or more and less than 40% 1 Herbicidal ratio of 5% or more and less than 20% 0 Herbicidal ratio of 5% or less (almost no effect) [Test Example 4] Herbicidal Effect Test by Application to Foliage Sterilized diluvial soil was placed in a plastic box having a length of 21 cm, a width of 13 cm, and a depth of 7 cm. Each of the seeds of Digitaria ciliaris, Setaria viridis, Echinochloa crus-galli var. crus-galli, Avena fatua, Alopecurus myosuroides, Lolium multiflorum Lam., Apera spica-venti., Abutilon theophrasti, Amaranthus retroflexus, Chenopodium album, Stellaria media, Galium spurium, Veronica persica, Zea mays, Glycine max, Oryza sativa, Triticum aestivum, Beta vulgaris ssp. vulgaris, and Brassica campestris L. was sowed in a spot-like manner and was covered with the soil of about 1.5 cm thick. Thereafter, the plants were grown in the greenhouse of 25° C. to 30° C. After the plants were grown for 14 days, the emulsion agent containing the compound of the present invention prepared in accordance with Formulation Example 2 was diluted with water so as to be a predetermined herbicide amount and the diluted compound was uniformly applied to a stem and leaf part with a small-size spray. Three weeks after the herbicide application, effects on each plant were investigated in accordance with the criteria of Test Example 1. A: Echinochloa oryzicola Vasing., B: Scirpus juncoides, C: Monochoria vaginalis, D: Leptochloa chinensis, E: Cyperus difformis, F: Digitaria ciliaris, G: Setaria viridis, H: Echinochloa crus-galli var. crus-galli, I: Avena fatua, J: Alopecurus myosuroides, K: Lolium multiflorum Lam., L: Apera spica-venti., M: Abutilon theophrasti, N: Amaranthus retroflexus, O: Chenopodium album, P: Stellaria media, Q: Galium spurium, R: Veronica persica, a: transplanted Oryza sativa, b: directly sowed Oryza sativa, c: Zea mays, d: Glycine max, e: Triticum aestivum, f: Beta vulgaris ssp. vulgaris, and g: Brassica campestris L. The application herbicide amount (g/ha) means an amount that a concentration is adjusted so that, when an application amount is converted into per hectare (1 ha), the herbicide is applied by the number of grams (g) of the described value.

[3] = system: Stellaria media; assay: as above; conditions: application to foliage, application herbicide amount 320 g/ha
Excerpt: as §2

[4] = system: Chenopodium album; assay: as above; conditions: application to foliage, application herbicide amount 320 g/ha
Excerpt: as §2

[5] = system: Abutilon theophrasti; assay: as above; conditions: application to foliage, application herbicide amount 320 g/ha
Excerpt: as §2

[6] = system: Echinochloa crus-galli var. crus-galli; assay: as above; conditions: application to foliage, application herbicide amount 320 g/ha
Excerpt: as §2

[7] = system: Digitaria ciliaris; assay: as above; conditions: application to foliage, application herbicide amount 320 g/ha
Excerpt: as §2

[8] = system: Alopecurus myosuroides; assay: as above; conditions: application to foliage, application herbicide amount 320 g/ha
Excerpt: as §2

[9] = system: Apera spica-venti.; assay: as above; conditions: application to foliage, application herbicide amount 320 g/ha
Excerpt: as §2

[10] = system: Veronica persica; assay: as above; conditions: application to foliage, application herbicide amount 320 g/ha
Excerpt: as §2

[11] = system: Setaria viridis; assay: as above; conditions: application to foliage, application herbicide amount 320 g/ha
Excerpt: as §2

[12] = system: Lolium multiflorum Lam.; assay: as above; conditions: application to foliage, application herbicide amount 320 g/ha
Excerpt: as §2

[13] = system: Amaranthus retroflexus; assay: as above; conditions: application to foliage, application herbicide amount 320 g/ha
Excerpt: as §2

[14] = system: Avena fatua; assay: as above; conditions: application to foliage, application herbicide amount 320 g/ha
Excerpt: as §2

[15] = system: Monochoria vaginalis; assay: Test Example 1: herbicidal activity, application before weed generation in submerged conditions; conditions: Application herbicide amount 320 g/ha; Seventeenth Table
Excerpt: as §1

[16] = system: Scirpus juncoides; assay: as above; conditions: Application herbicide amount 320 g/ha; Seventeenth Table
Excerpt: as §1

[17] = system: Glycine max; assay: Test Example 4: effect on crop by application to foliage (diluvial soil, plastic box); conditions: application to foliage, application herbicide amount 320 g/ha
In short: (§3)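 Scores run from 0 (herbicidal ratio ≤5%) to 5 (≥90%, almost fully withered) and were assessed three weeks after foliar spraying. Seedlings had been raised for 14 days at 25-30° C in sterilized diluvial soil before treatment, with the emulsion diluted in water to the stated g/ha dose.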

[18] = system: Beta vulgaris ssp. vulgaris; assay: as above; conditions: application to foliage, application herbicide amount 320 g/ha
In short: as §3

[19] = system: Zea mays; assay: as above; conditions: application to foliage, application herbicide amount 320 g/ha
In short: as §3

[20] = system: directly sowed Oryza sativa; assay: as above; conditions: application to foliage, application herbicide amount 320 g/ha
In short: as §3

[21] = system: Triticum aestivum; assay: as above; conditions: application to foliage, application herbicide amount 320 g/ha
In short: as §3

[22] = system: Brassica campestris L.; assay: as above; conditions: application to foliage, application herbicide amount 320 g/ha
In short: as §3

[23] = system: directly sowed Oryza sativa; assay: Test Example 3: effect on crop by application to foliage (Wagner pot, water depth 0.1-0.5 cm); conditions: Nineteenth Table; application to foliage; application herbicide amount 320 g/ha
Excerpt: 5 Herbicidal ratio of 90% or more (almost completely withered) 4 Herbicidal ratio of 70% or more and less than 90% 3 Herbicidal ratio of 40% or more and less than 70% 2 Herbicidal ratio of 20% or more and less than 40% 1 Herbicidal ratio of 5% or more and less than 20% 0 Herbicidal ratio of 5% or less (almost no effect) [Test Example 3] Herbicidal Effect Test by Application to Foliage After alluvial soil was placed into 1/10000 are of Wagner pot, water was poured and mixed to form a condition having a water depth of 0.1 cm to 0.5 cm. Seeds of Echinochloa crus-galli var. crus-galli, Leptochloa chinensis, Cyperus difformis, and Oryza sativa were sowed and the pot was placed in the greenhouse of 25° C. to 30° C. to grow the plants. After the plants were grown for 14 days, the emulsion agent containing the compound of the present invention prepared in accordance with Formulation Example 2 was diluted with water so as to be a predetermined herbicide amount and the diluted compound was uniformly applied to a stem and leaf part with a small-size spray. Three weeks after the herbicide application, effects on each plant were investigated in accordance with the criteria of Test Example 1. A: Echinochloa oryzicola Vasing., B: Scirpus juncoides, C: Monochoria vaginalis, D: Leptochloa chinensis, E: Cyperus difformis, F: Digitaria ciliaris, G: Setaria viridis, H: Echinochloa crus-galli var. crus-galli, I: Avena fatua, J: Alopecurus myosuroides, K: Lolium multiflorum Lam., L: Apera spica-venti., M: Abutilon theophrasti, N: Amaranthus retroflexus, O: Chenopodium album, P: Stellaria media, Q: Galium spurium, R: Veronica persica, a: transplanted Oryza sativa, b: directly sowed Oryza sativa, c: Zea mays, d: Glycine max, e: Triticum aestivum, f: Beta vulgaris ssp. vulgaris, and g: Brassica campestris L. The application herbicide amount (g/ha) means an amount that a concentration is adjusted so that, when an application amount is converted into per hectare (1 ha), the herbicide is applied by the number of grams (g) of the described value.

[24] = system: Echinochloa crus-galli var. crus-galli; assay: Test Example 3: herbicidal effect by application to foliage (Wagner pot, water depth 0.1-0.5 cm); conditions: Nineteenth Table; application to foliage; application herbicide amount 320 g/ha
In short: (§4)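 Post-emergence foliar application at a stated g/ha rate to plants grown 14 days from seed in alluvial soil, greenhouse 25–30 °C. Visual score after 3 weeks: 0 (≤5% effect) through 5 (≥90%).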

[25] = system: Leptochloa chinensis; assay: as above; conditions: Nineteenth Table; application to foliage; application herbicide amount 320 g/ha
In short: as §4

Compound | Q: herbicidal effect on Galium spurium [2] | P: herbicidal effect on Stellaria media [3] | O: herbicidal effect on Chenopodium album [4] | M: herbicidal effect on Abutilon theophrasti [5] | H: herbicidal effect on Echinochloa crus-galli var. crus-galli [6] | F: herbicidal effect on Digitaria ciliaris [7] | J: herbicidal effect on Alopecurus myosuroides [8] | L: herbicidal effect on Apera spica-venti. [9] | R: herbicidal effect on Veronica persica [10] | G: herbicidal effect on Setaria viridis [11] | K: herbicidal effect on Lolium multiflorum Lam. [12] | N: herbicidal effect on Amaranthus retroflexus [13] | I: herbicidal effect on Avena fatua [14] | d: effect on crop, Glycine max [17] | f: effect on crop, Beta vulgaris ssp. vulgaris [18] | c: effect on crop, Zea mays [19] | b: effect on crop, directly sowed Oryza sativa [20] | e: effect on crop, Triticum aestivum [21] | g: effect on crop, Brassica campestris L. [22] | further results
CC#Cc1nnc2c(C(=O)Nc3nnc(C)o3)ccc(C(F)(F)F)n12 [1-161] | 0 (Herbicidal ratio of 5% or less (almost no effect)) | 0 (Herbicidal ratio of 5% or less (almost no effect)) | 4 (Herbicidal ratio of 70% or more and less than 90%) | 1 (Herbicidal ratio of 5% or more and less than 20%) | 3 (Herbicidal ratio of 40% or more and less than 70%) | 3 (Herbicidal ratio of 40% or more and less than 70%) | 0 (Herbicidal ratio of 5% or less (almost no effect)) | 0 (Herbicidal ratio of 5% or less (almost no effect)) | 1 (Herbicidal ratio of 5% or more and less than 20%) | 0 (Herbicidal ratio of 5% or less (almost no effect)) | 0 (Herbicidal ratio of 5% or less (almost no effect)) | 0 (Herbicidal ratio of 5% or less (almost no effect)) | 0 (Herbicidal ratio of 5% or less (almost no effect)) | 1 (Herbicidal ratio of 5% or more and less than 20%) | 1 (Herbicidal ratio of 5% or more and less than 20%) | 0 (Herbicidal ratio of 5% or less (almost no effect)) | 0 (Herbicidal ratio of 5% or less (almost no effect)) | 0 (Herbicidal ratio of 5% or less (almost no effect)) | 0 (Herbicidal ratio of 5% or less (almost no effect)) | a: transplanted Oryza sativa (effect on crop grade) [1]: 0 (Herbicidal ratio of 5% or less (almost no effect)); C: Monochoria vaginalis (herbicidal effect grade) [15]: 0 (Herbicidal ratio of 5% or less (almost no effect)); B: Scirpus juncoides (herbicidal effect grade) [16]: 2 (Herbicidal ratio of 20% or more and less than 40%)
Cc1nnc(NC(=O)c2ccc(C(F)(F)F)n3c(C4CC=CCC4)nnc23)o1 (centres unmarked) [1-170] | 2 (Herbicidal ratio of 20% or more and less than 40%) | 4 (Herbicidal ratio of 70% or more and less than 90%) | 5 (Herbicidal ratio of 90% or more (almost completely withered)) | 3 (Herbicidal ratio of 40% or more and less than 70%) | 4 (Herbicidal ratio of 70% or more and less than 90%) | 4 (Herbicidal ratio of 70% or more and less than 90%) | 0 (Herbicidal ratio of 5% or less (almost no effect)) | 1 (Herbicidal ratio of 5% or more and less than 20%) | 4 (Herbicidal ratio of 70% or more and less than 90%) | 3 (Herbicidal ratio of 40% or more and less than 70%) | 1 (Herbicidal ratio of 5% or more and less than 20%) | 3 (Herbicidal ratio of 40% or more and less than 70%) | 1 (Herbicidal ratio of 5% or more and less than 20%) | 2 (Herbicidal ratio of 20% or more and less than 40%) | 5 (Herbicidal ratio of 90% or more (almost completely withered)) | 0 (Herbicidal ratio of 5% or less (almost no effect)) | 0 (Herbicidal ratio of 5% or less (almost no effect)) | 0 (Herbicidal ratio of 5% or less (almost no effect)) | 3 (Herbicidal ratio of 40% or more and less than 70%) | b (effect on crop grade) [23]: 1 (Herbicidal ratio of 5% or more and less than 20%); H (herbicidal effect grade) [24]: 2 (Herbicidal ratio of 20% or more and less than 40%); D (herbicidal effect grade) [25]: 4 (Herbicidal ratio of 70% or more and less than 90%)
